Earlier results as cited in patent publication US20120101168A1, “DEUTERIUM ENRICHED RASAGILINE” (priority 2010, published 2012).

Legend:
CYP1A2 = CYP1A2 (Homo sapiens, UniProt P05177); details: forms several primary metabolites
MAO = details: more potent, but not in-vitro

Chain of CYP1A2 (P05177 whole entry): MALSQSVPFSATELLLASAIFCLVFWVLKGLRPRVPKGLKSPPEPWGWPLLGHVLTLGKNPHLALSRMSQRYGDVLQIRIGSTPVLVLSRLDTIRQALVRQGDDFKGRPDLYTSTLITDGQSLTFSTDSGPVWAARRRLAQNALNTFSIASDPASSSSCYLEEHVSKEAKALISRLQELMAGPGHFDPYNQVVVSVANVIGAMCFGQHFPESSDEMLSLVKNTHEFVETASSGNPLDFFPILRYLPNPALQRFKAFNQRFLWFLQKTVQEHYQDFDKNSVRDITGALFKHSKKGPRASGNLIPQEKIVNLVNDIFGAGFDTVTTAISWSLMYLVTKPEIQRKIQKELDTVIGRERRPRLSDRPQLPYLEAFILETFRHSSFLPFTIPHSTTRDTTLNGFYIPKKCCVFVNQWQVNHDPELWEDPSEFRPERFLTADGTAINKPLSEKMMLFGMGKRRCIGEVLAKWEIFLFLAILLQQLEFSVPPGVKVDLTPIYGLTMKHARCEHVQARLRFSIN

Structure (SMILES) | metabolism by CYP1A2 (CYP1A2) | MAO inhibition potency compared with non-deuterated phenelzine (MAO)
C#CCN[C@@H]1CCc2ccccc21 [Rasagiline, R(+)-N-propargyl-1-aminoindan] | slowly metabolized | 
[2H]C([2H])(NN)C([2H])([2H])c1ccccc1 [deuterated phenelzine] |  | more potent MAO inhibitor
